# Columns and labels:
# IKBKB (IKKβ) = biological target: T1, IKBKB (IKKβ) (Homo sapiens, UniProt O14920); experiment: IKKβ Enzyme Assay (Z'-LYTE, Invitrogen); assay type: biochemical; conditions: ATP at or close to Km; read-out: Inhibitor activity versus IKKβ
# T1 construct: purchased Invitrogen (Paisley, UK)
# T1 sequence (O14920 1-756): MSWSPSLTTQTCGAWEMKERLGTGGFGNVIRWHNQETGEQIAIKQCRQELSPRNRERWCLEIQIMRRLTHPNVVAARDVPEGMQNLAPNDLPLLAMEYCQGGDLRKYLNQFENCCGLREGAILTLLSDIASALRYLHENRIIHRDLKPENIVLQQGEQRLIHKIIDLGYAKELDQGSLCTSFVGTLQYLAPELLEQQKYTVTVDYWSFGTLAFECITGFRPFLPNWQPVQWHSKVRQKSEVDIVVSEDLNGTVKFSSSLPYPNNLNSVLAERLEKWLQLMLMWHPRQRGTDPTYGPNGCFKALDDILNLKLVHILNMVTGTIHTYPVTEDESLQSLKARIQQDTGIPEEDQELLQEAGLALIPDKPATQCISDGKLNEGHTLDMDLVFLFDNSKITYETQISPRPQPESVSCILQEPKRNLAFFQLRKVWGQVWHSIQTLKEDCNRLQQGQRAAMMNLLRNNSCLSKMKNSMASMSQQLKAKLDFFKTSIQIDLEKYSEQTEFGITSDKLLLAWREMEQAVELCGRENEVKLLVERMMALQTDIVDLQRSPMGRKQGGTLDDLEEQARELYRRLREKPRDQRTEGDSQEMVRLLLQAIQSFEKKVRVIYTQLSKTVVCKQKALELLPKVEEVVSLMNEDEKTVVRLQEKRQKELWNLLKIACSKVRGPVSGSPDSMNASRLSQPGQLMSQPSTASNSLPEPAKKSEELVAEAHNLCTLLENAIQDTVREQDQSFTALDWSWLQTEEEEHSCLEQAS
# Outline: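 Z'-LYTE FRET assay with 0.9-8.0 ng human IKBKB, 2 μM Ser/Thr 05 peptide and ATP at or near Km in HEPES pH 7.5, 60 min at room temperature, then 60 min development. Coumarin/fluorescein emission ratio read; duplicate nine-step ⅓-log series from 10 μM; IC50 from sigmoidal fit.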
# THP-1 cells = experiment: LPS-Stimulation of THP-1 Cells, TNF-α release; assay type: cell-based; conditions: Homo sapiens, LPS 1 μg/ml, 6 hrs, read-out: Inhibitor activity versus THP-1 TNFα release
# Procedure: LPS-Stimulation of THP-1 Cells
# THP-1 cells were plated in 100 μl at a density of 4×10^4 cells/well in V-bottomed 96 well tissue culture treated plates and incubated at 37° C. in 5% CO2 for 16 hrs. 2 hrs after the addition of the inhibitor in 100 μl of tissue culture media, the cells were stimulated with LPS (E. coli strain 005:85, Sigma) at a final concentration of 1 μg/ml and incubated at 37° C. in 5% CO2 for 6 hrs. TNF-α levels were measured from cell-free supernatants by sandwich ELISA (R&D Systems #QTA00B)
# human whole blood = experiment: LPS-Stimulation of Human Whole Blood, TNF-α release; assay type: cell-based; conditions: LPS 100 ng/ml, 6 hrs, read-out: Inhibitor activity versus human whole blood TNFα release
# Procedure: LPS-Stimulation of Human Whole Blood
# Whole blood was taken by venous puncture using heparinised vacutainers (Becton Dickinson) and diluted in an equal volume of RPMI1640 tissue culture media (Sigma). 100 μl was plated in V-bottomed 96 well tissue culture treated plates. 2 hrs after the addition of the inhibitor in 100 μl of RPMI1640 media, the blood was stimulated with LPS (E. coli strain 005:B5, Sigma) at a final concentration of 100 ng/ml and incubated at 37° C. in 5% CO2 for 6 hrs. TNF-α levels were measured from cell-free supernatants by sandwich ELISA (R&D Systems #QTA00B)
SMILES,IC50 (IKBKB (IKKβ)),IC50 (THP-1 cells),IC50 (human whole blood)
"C[C@@H](OC(C)(C)C)[C@H](NCCc1cccc(-c2cc(C(N)=O)c(NC(N)=O)s2)c1)C(=O)OC1CCCC1 [Example 21, Cyclopentyl O-tert-butyl-N-(2-{3-[4-carbamoyl-5-(carbamoylamino)-2-thienyl]phenyl}ethyl)-L-threoninate]",,,> 5 µM
"C[C@@H](O)[C@H](NCc1cccc(-c2cc(C(N)=O)c(NC(N)=O)s2)c1)C(=O)OC1CCCC1 [Example 13, Cyclopentyl N-{3-[4-carbamoyl-5-(carbamoylamino)thiophen-2-yl]benzyl}-L-threoninate]",< 1 µM,< 1 µM,< 1 µM
"CC(C)C[C@H](NCCc1cccc(-c2cc(C(N)=O)c(NC(N)=O)s2)c1)C(=O)OC1CCCC1 [Example 18, Cyclopentyl N-(2-{3-[4-carbamoyl-5-(carbamoylamino)-2-thienyl]phenyl}ethyl)-L-leucinate]",1 to 5 µM,< 1 µM,1 to 5 µM
"NC(=O)Nc1sc(-c2cccc(CN[C@H](C(=O)OC3CCCC3)C3CCCCC3)c2)cc1C(N)=O [Example 10, Cyclopentyl (2S)-({3-[4-carbamoyl-5-(carbamoylamino)-2-thienyl]benzyl}amino)(cyclohexyl)acetate]",1 to 5 µM,< 1 µM,1 to 5 µM
"NC(=O)Nc1sc(-c2cccc(CN[C@H](C(=O)OC3CCCC3)c3ccccc3)c2)cc1C(N)=O [Example 9, Cyclopentyl (2S)-({3-[4-carbamoyl-5-(carbamoylamino)-2-thienyl]benzyl}amino)(phenyl)acetate]",< 1 µM,< 1 µM,1 to 5 µM
"C[C@@H](O)[C@H](NC/C=C/c1ccc(-c2cc(C(N)=O)c(NC(N)=O)s2)cc1)C(=O)OC1CCCC1 [Example 48, Cyclopentyl N-[(2E)-3-{4-[4-carbamoyl-5-(carbamoylamino)thiophen-2-yl]phenyl}prop-2-en-1-yl]-L-threoninate]",,,1 to 5 µM
"NC(=O)Nc1sc(-c2ccc(/C=C/CN[C@H](C(=O)OC3CCCC3)C3CCCCC3)cc2)cc1C(N)=O [Example 44, Cyclopentyl (2S)-{[(2E)-3-{4-[4-carbamoyl-5-(carbamoylamino)thiophen-2-yl]phenyl}prop-2-en-1-yl]amino}(cyclohexyl)ethanoate]",< 1 µM,,> 5 µM
"CC(C)C[C@H](NCc1cccc(-c2cc(C(N)=O)c(NC(N)=O)s2)c1)C(=O)OC(C)(C)C [Example 14, tert-Butyl N-{3-[4-carbamoyl-5-(carbamoylamino)-2-thienyl]benzyl}-L-leucinate]",< 1 µM,< 1 µM,1 to 5 µM
"CC(C)(C)OC(=O)[C@@H](NC/C=C/c1ccc(-c2cc(C(N)=O)c(NC(N)=O)s2)cc1)C1CCCCC1 [Example 45, tert-butyl (2S)-{[(2E)-3-{4-[4-carbamoyl-5-(carbamoylamino)thiophen-2-yl]phenyl}prop-2-en-1-yl]amino}(cyclohexyl)ethanoate]",< 1 µM,,> 5 µM
"NC(=O)Nc1sc(-c2ccc(CN[C@H](C(=O)OC3CCCC3)c3ccccc3)cc2)cc1C(N)=O [Example 1, Cyclopentyl (2S)-({-4-[4-carbamoyl-5-(carbamoylamino)-2-thienyl]benzyl}amino)(phenyl)acetate]",1 to 5 µM,1 to 5 µM,1 to 5 µM
"CC(C)C[C@H](NCCc1cc(-c2cc(C(N)=O)c(NC(N)=O)s2)ccc1Cl)C(=O)OC1CCCC1 [Example 24, Cyclopentyl N-(2-{5-[4-carbamoyl-5-(carbamoylamino)thiophen-2-yl]-2-chlorophenyl}ethyl)-L-leucinate]",,,> 5 µM
"CC(C)(C)OC[C@H](NCCc1cccc(-c2cc(C(N)=O)c(NC(N)=O)s2)c1)C(=O)OC1CCCC1 [Example 20, Cyclopentyl O-tert-butyl-N-(2-{3-[4-carbamoyl-5-(carbamoylamino)-2-thienyl]phenyl}ethyl)-L-serinate]",,,1 to 5 µM
"CC(C)(C)OC[C@H](NC/C=C/c1ccc(-c2cc(C(N)=O)c(NC(N)=O)s2)cc1)C(=O)OC1CCCC1 [Example 43, Cyclopentyl O-tert-butyl-N-[(2E)-3-{4-[4-carbamoyl-5-(carbamoylamino)thiophen-2-yl]phenyl}prop-2-en-1-yl]-L-serinate]",< 1 µM,,1 to 5 µM
"NC(=O)Nc1sc(-c2cccc(CN[C@@H](CO)C(=O)OC3CCCC3)c2)cc1C(N)=O [Example 12, Cyclopentyl N-{3-[4-carbamoyl-5-(carbamoylamino)thiophen-2-yl]benzyl}-L-serinate]",< 1 µM,,< 1 µM

# Other lines, results leading:
IC50 (IKBKB (IKKβ)),IC50 (THP-1 cells),IC50 (human whole blood),SMILES
1 to 5 µM,1 to 5 µM,1 to 5 µM,"CC(C)C[C@H](NC/C=C/c1ccc(-c2cc(C(N)=O)c(NC(N)=O)s2)cc1F)C(=O)OC1CCCC1 [Example 31, Cyclopentyl N-[(2E)-3-{4-[4-carbamoyl-5-(carbamoylamino)thiophen-2-yl]-2-fluorophenyl}prop-2-en-1-yl]-L-leucinate]"
1 to 5 µM,< 1 µM,1 to 5 µM,"CC(C)C[C@H](NC/C=C/c1ccc(-c2cc(C(N)=O)c(NC(N)=O)s2)cc1Cl)C(=O)OC1CCCC1 [Example 32, Cyclopentyl N-[(2E)-3-{4-[4-carbamoyl-5-(carbamoylamino)thiophen-2-yl]-2-chlorophenyl}prop-2-en-1-yl]-L-leucinate]"
> 5 µM,< 1 µM,1 to 5 µM,"Cc1cc(/C=C/CN[C@@H](CC(C)C)C(=O)OC2CCCC2)ccc1-c1cc(C(N)=O)c(NC(N)=O)s1 [Example 33, Cyclopentyl N-[(2E)-3-{4-[4-carbamoyl-5-(carbamoylamino)thiophen-2-yl]-3-methylphenyl}prop-2-en-1-yl]-L-leucinate]"
< 1 µM,< 1 µM,< 1 µM,"CC(C)C[C@H](NC/C=C/c1ccc(-c2cc(C(N)=O)c(NC(N)=O)s2)cc1)C(=O)OC1CCCC1 [Example 29, Cyclopentyl N-[(2E)-3-{4-[4-carbamoyl-5-(carbamoylamino)-2-thienyl]phenyl}Prop-2-en-1-yl]-L-leucinate]"
< 1 µM,< 1 µM,1 to 5 µM,"CC(C)C[C@H](NCc1cccc(-c2cc(C(N)=O)c(NC(N)=O)s2)c1)C(=O)OC1CCCC1 [Example 8, Cyclopentyl N-{3-[4-carbamoyl-5-(carbamoylamino)-2-thienyl]benzyl}-L-leucinate]"
> 5 µM,,1 to 5 µM,"CC(C)C[C@H](NC/C=C/c1c(F)cc(-c2cc(C(N)=O)c(NC(N)=O)s2)cc1F)C(=O)OC1CCCC1 [Example 38, Cyclopentyl N-[(2E)-3-{4-[4-carbamoyl-5-(carbamoylamino)thiophen-2-yl]-2,6-difluorophenyl}prop-2-en-1-yl]-L-leucinate]"
,,> 5 µM,"Cc1ccc(-c2cc(C(N)=O)c(NC(N)=O)s2)cc1CCN[C@@H](CC(C)C)C(=O)OC1CCCC1 [Example 23, Cyclopentyl N-(2-{5-[4-carbamoyl-5-(carbamoylamino)thiophen-2-yl]-2-methylphenyl}ethyl)-L-leucinate]"
> 5 µM,,1 to 5 µM,"CC(C)C[C@H](NC/C=C/c1ccc(-c2cc(C(N)=O)c(NC(N)=O)s2)c(C(F)(F)F)c1)C(=O)OC1CCCC1 [Example 39, Cyclopentyl N-[(2E)-3-{4-[4-carbamoyl-5-(carbamoylamino)thiophen-2-yl]-3-(trifluoromethyl)phenyl}prop-2-en-1-yl]-L-leucinate]"
< 1 µM,,1 to 5 µM,"CC(C)C[C@@H](NC/C=C/c1ccc(-c2cc(C(N)=O)c(NC(N)=O)s2)cc1)C(=O)OC1CCCC1 [Example 46, Cyclopentyl N-[(2E)-3-{4-[4-carbamoyl-5-(carbamoylamino)-2-thienyl]phenyl}prop-2-en-1-yl]-D-leucinate]"
